Experimental data from patent US9198914B2, “Methods and compositions for modulating RAD51 and homologous recombination” (The University of Chicago, priority 2007, dated 2015).
“Also recorded” adds a separate entry of the source.

Experiments:
[1] = target: RecA protein (the bacterial ortholog of RAD51) (Escherichia coli, UniProt P0A7G6); settings: RecA in place of RAD51
Protocol: RAD51 filament formation can also be studied using oligonucleotides that are end-labeled with a fluorescent tag. Binding of proteins to this substrate DNA can be detected as an increase in anisotropy (or polarization) of the fluorescent tag. […] In this example, this method was modified so that very small sample volumes (30 μl) can be monitored in a high-throughput scale, using 384-well plates and a fluorescent plate reader. […] By varying the amount of substrate DNA, a threshold of approximately 0.1 μM RAD51 protein is required for in vitro filament formation in this system.
A naïve 10,000 compound library of small molecules (Chembridge DIVERSet collection) was screened. A ‘mixed compound’ screening strategy was used, wherein each reaction tested a mixture of 8 compounds.

[2] = system: chicken lymphocyte DT40 cells; experiment: Clonogenic survival study in the presence of radiation; assay type: cell-based; settings: compound added about 30 minutes after irradiation, 24 hours
Protocol: Single chicken lymphocyte DT40 cells were irradiated. Thirty minutes later, they were incubated with compound 45488 (also called compound 5253121) for 24 hours. Single cells were then plated (100, 1000, or 10000) in 6-well plates in media. Because DT40 cells are not adherent to plastic surfaces, the media included methylcellulose to provide viscosity. After 7-10 days, the resulting colonies are counted, and survival is reported as a colony-forming ability relative to un-irradiated cells.

bacterial RecA = bacterial RecA (Escherichia coli, UniProt P0A7G6)
Chain of bacterial RecA (P0A7G6 whole entry): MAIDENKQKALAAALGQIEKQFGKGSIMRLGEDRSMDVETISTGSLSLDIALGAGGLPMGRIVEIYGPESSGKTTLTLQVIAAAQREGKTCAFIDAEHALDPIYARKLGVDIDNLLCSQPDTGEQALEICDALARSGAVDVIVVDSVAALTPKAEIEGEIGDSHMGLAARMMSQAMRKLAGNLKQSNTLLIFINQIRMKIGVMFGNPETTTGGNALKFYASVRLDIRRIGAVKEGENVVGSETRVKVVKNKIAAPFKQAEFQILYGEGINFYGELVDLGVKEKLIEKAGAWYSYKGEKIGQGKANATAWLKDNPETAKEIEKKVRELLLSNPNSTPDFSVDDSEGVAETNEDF
Protocol: Briefly, 15 μl reaction volumes included a DNA strand exchange protein (0.8 μM) that was pre-incubated for 5 min at 37° C. with 1 μM (nucleotide concentration) ^32P-labeled oligonucleotide in a reaction buffer containing 20 mM Hepes (pH 7.5), 1 mM DTT, 2 mM nucleotide cofactor, and 1 mM MgCl2, and various concentrations of RS-1. For experimental buffer conditions that included calcium, 1 mM CaCl2 was present in addition to (in the case of hRAD51) or in the place of (in the case of RecA and scRAD51) the 1 mM MgCl2. Conditions with scRAD51 additionally contained 110 nM scRAD54. Following this initial binding reaction, 10 μl of 19.75 μM (base pair concentration) supercoiled homolog-containing target plasmid DNA (pRS306) was next added along with sufficient magnesium acetate to give a final concentration of 10 mM. DNA substrates were allowed form a homology dependent association (or ‘D-loop’), and reactions were stopped with SDS and proteinase K. The resulting DNA was separated on 1.3% agarose gels, transferred onto nitrocellulose membranes, analyzed by phosphorimaging, and quantified with ImageJ 1.37v software (NIH).
These experiments were repeated using other recombinase proteins (bacterial RecA and yeast DMC1) in the place of human RAD51.

human RAD51 [3] = target: T1, human RAD51 (Homo sapiens, UniProt Q06609); experiment: Fluorescence polarization assay for RAD51 filament formation on fluorescein-labeled oligonucleotide; assay type: biochemical
T1 sequence (Q06609 1-339): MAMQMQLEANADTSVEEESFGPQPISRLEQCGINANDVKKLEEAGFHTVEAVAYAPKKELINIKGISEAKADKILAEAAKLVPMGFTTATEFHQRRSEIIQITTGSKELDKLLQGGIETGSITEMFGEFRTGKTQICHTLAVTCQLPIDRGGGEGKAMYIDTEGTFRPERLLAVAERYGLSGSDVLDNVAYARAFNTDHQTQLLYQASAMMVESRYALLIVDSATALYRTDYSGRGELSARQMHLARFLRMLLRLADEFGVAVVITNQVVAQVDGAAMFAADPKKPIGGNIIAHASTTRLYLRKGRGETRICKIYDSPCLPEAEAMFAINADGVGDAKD
Protocol: FIGS. 2A-2B. FIG. 2A, top: Schematic of protein filament formation monitored in vitro using a fluorescence polarization assay. FIG. 2A, bottom: Purified RAD51 protein (wild type or mutant F86E) were serially diluted. RecA (New England Biolabs) was used as a positive control. Proteins were added to a 5′terminal fluorescein conjugated oligonucleotide (45 bases of dT) at a 1 μM nucleotide concentration. The mixture was incubated at 37° C. for 30 minutes in 384-well plates containing a reaction buffer (30 mM Tris/acetate pH 7.5, 10 mM Mg^2+/acetate, 2 mM ATP, 0.1 mM DTT, 0.5 μM BSA). Fluorescence polarization was measured with a plate reader (filters: excitation=485 nm, emission=510 nm). FIG. 2B, top: Varying concentrations of 5′terminal fluorescein conjugated oligonucleotide were used to determine the threshold RAD51 concentration.
The assay of Example 2 was used to serve in the screen of a small-molecule chemical library for compounds that stimulate RAD51 filament formation. […] Multiple positive (+RAD51) and negative […] controls were tested, and these readings were tested using the statistical method described by Zhang et al. (1999), which evaluates the suitability of an HT assay. The assay as described has a Z-factor of 0.82, validating it as an excellent assay for HT screening.
The assay of Example 2 was used to serve in the screen of a small-molecule chemical library for compounds that inhibit RAD51 filament formation. […] FP readings were very reproducible with reaction volumes in the 10-100 μl range, and 100 μl was typically used. […] The assay was optimized such that the positive control FP reading was ˜50% of maximal reaction saturation; the RAD51 protein concentration was 0.3 uM and the fluorescein-labeled DNA is at 0.1 uM (nucleotide concentration). […] The average FP readings for positive control and negative control are 344 mP (SD=13.4) and 27 mP (SD=5.3), respectively. These readings were tested using the statistical method described by Zhang et al, which evaluates the suitability of an HT assay (Zhang et al., 1999). […]

human RAD51 [4] = target: T1, human RAD51; experiment: Strand invasion (D-loop) assay; assay type: biochemical; settings: 0.8 μM RAD51; buffer that does not support joint molecule formation (1 mM ATP, 1 mM MgOAc)
Protocol: FIGS. 6A-6B. Schematic of the strand invasion (D-loop) assay.
(§1) Conditions with scRAD51 additionally contained 110 nM scRAD54.

yeast DMC1 = target: T2, yeast DMC1 (Saccharomyces cerevisiae, UniProt P25453); experiment: Strand invasion (D-loop) assay with DMC1 in place of RAD51; assay type: biochemical
T2 sequence (P25453 1-334): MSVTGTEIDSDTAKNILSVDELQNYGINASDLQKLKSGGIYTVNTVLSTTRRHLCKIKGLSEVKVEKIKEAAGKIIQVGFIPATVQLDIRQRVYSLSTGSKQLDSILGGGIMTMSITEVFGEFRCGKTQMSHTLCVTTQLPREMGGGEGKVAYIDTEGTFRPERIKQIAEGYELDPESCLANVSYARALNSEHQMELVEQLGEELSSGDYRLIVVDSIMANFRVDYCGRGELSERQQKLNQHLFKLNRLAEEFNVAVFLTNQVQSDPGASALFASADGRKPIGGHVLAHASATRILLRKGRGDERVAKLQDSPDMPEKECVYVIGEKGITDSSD
Protocol: as §1

Chain of RecA protein (the bacterial ortholog of RAD51) (P0A7G6 2-353): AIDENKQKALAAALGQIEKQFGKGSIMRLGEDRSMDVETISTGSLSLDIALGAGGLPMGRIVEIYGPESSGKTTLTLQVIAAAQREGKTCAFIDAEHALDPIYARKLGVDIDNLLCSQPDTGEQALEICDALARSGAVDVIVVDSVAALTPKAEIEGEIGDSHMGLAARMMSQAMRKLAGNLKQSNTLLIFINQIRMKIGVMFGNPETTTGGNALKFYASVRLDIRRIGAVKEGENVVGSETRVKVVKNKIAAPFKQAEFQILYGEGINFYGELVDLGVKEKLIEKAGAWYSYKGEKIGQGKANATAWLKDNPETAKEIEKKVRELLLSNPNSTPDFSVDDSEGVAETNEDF

O=C(Nc1ccc(Br)cc1)c1ccc(Br)c(S(=O)(=O)NCc2ccccc2)c1 [compound 45488]
stimulation of RecA filament formation [1]: no stimulation of filament formation
protection of cells from radiation (colony-forming ability) [2]: protects the cells from radiation damage
effect on strand invasion by RecA (bacterial RecA): no effect
stability of RAD51 filaments in high salt (human RAD51 [3]; buffers containing high salt concentrations): protects these filaments from buffers containing high salt concentrations; also recorded: stabilizes RAD51 filaments in the presence of high salt concentrations
effect on RAD51 filament formation (human RAD51 [3]; compound at 20 μM): enhances filament formation
effect on RAD51 filament formation (human RAD51 [3]; further study): enhances RAD51 filament formation
joint molecule formation / DNA strand invasion activity of RAD51 (human RAD51 [4]): capable of stimulating DNA strand invasion activity of RAD51; also recorded: concentration dependent increase in joint molecule formation
effect on strand invasion by DMC1 (yeast DMC1): some inhibition
